Measurements as given in US6683184B2, “Piperazine derivatives and process for the preparation thereof” (Samjin Pharmaceutical Co., Ltd., priority 1999, dated 2004).
Values after ≈ are worked out from the molar mass of the structure shown.

How the values were obtained:
Assay type in all cases: cell-based
[1] = system: A549 (human non-small lung cell); assay: In vitro antitumor effect against human tumor cell lines, SRB assay, A549; settings: A549 cells, 48 hours; for IC50: Homo sapiens, read-out: ED50 A 549
Description: (§1) In vitro antitumor effect against human tumor cell lines.
(§2) a. Human solid tumor cell lines, A549(non-small lung cell), SKMEL-2(melanoma), HCT-15(colon), SKOV-3(ovarian), XF-498(CNS) were cultured at 37° C. in 5% CO2 incubators using RPMI 1640 media containing 10% FBS, while they were transfer-cultured successively once or twice per week. Cell cultures were dissolved in a solution of 0.25% trypsin and 3 mM CDTA PBS(−) and then cells were separated from media which the cells were sticked on.
(§3) b. 5×10^3˜2×10^4 cells were added into each well of 96-well plate and cultured in 5% CO2 incubator, at 37° C., for 24 hours.
(§4) c. Each sample drug was dissolved in a little DMSO and diluted with the used medium to a prescribed concentration for experiments, wherein the final concentration of DMSO was controlled below 0.5%.
(§5) d. Medium of each well cultured for 24 hours as above b. was removed by aspiration. Each 200 μl of drug samples prepared in c. was added into each well and the wells were cultured for 48 hours. Tz(time zero) plates were collected at the point of time drugs were added.
(§6) e. According to the SRB assay method, cell fixing with TCA, staining with 0.4% SRB solution, washing with 1% acetic acid and elution of dye with 10 mM Tris solution were carried out on Tz plates and culture-ended plates, whereby OD values were measured at 520 nm.
(§7) a. Time zero(Tz) value was determined with measuring the SRB protein amounts of the Tz plates collected at the point of time drugs were added.
(§8) b. Control value(C) was determined with the OD values of wells untreated with a drug.
(§9) c. Drug-treated test value(T) was determined with the OD values of drug-treated wells.
(§10) d. Effects of drugs were estimated with growth stimulation, net growth inhibition, net killing etc., being calculated from Tz, C and T.
(§11) e. If T≧Tz, cellular response function was calculated by 100×(T−Tz)/(C−Tz), and if T<Tz, by 100×(T−Tz)/Tz.

SKOV-3 (human ovarian) = assay: In vitro antitumor effect against human tumor cell lines, SRB assay, SKOV-3; settings: SK-OV-3 cells, 48 hours; for IC50: Homo sapiens, read-out: ED50 SK-OV-3
Description: as §1, §2, §3, §4, §5, §6, §7, §8, §9, §10, §11

SKMEL-2 (human melanoma) = assay: In vitro antitumor effect against human tumor cell lines, SRB assay, SKMEL-2; settings: SK-MEL-2 cells, 48 hours; for IC50: Homo sapiens, read-out: ED50 SK-MEL-2
Description: as §1, §2, §3, §4, §5, §6, §7, §8, §9, §10, §11

XF 498 (human CNS) = assay: In vitro antitumor effect against human tumor cell lines, SRB assay, XF 498; settings: 48 hours; for IC50: Homo sapiens, XF498, XF-498 cells, read-out: ED50 XF-498; for ED50 XF-498: XF-498 cells
Description: as §1, §2, §3, §4, §5, §6, §7, §8, §9, §10, §11

HCT-15 (human colon) = assay: In vitro antitumor effect against human tumor cell lines, SRB assay, HCT-15; settings: HCT 15 cells, 48 hours; for IC50: Homo sapiens, read-out: ED50 HCT 15
Description: as §1, §2, §3, §4, §5, §6, §7, §8, §9, §10, §11

Molecule | IC50 [1] | IC50 (SKOV-3 (human ovarian)) | IC50 (SKMEL-2 (human melanoma)) | IC50 (XF 498 (human CNS)) | IC50 (HCT-15 (human colon)) | ED50 A 549 [1] | ED50 SK-OV-3 (SKOV-3 (human ovarian)) | ED50 SK-MEL-2 (SKMEL-2 (human melanoma)) | ED50 XF-498 (XF 498 (human CNS)) | ED50 HCT 15 (HCT-15 (human colon))
COc1nc2ccccc2nc1NC(=S)N1CCN(c2cc(F)cc(F)c2)CC1 [Example 68, 1-[(2-Methoxyquinoxalin-3-yl)aminothiocarbonyl]-4-(3,5-difluorophenyl)piperazine] | 380 ng/mL (≈ 0.915 µM) | 860 ng/mL (≈ 2.07 µM) | 340 ng/mL (≈ 0.818 µM) | 470 ng/mL (≈ 1.13 µM) | 310 ng/mL (≈ 0.746 µM) |  |  |  |  | 
1-[(5,6-Dichloroethyl-2-methoxypyrazin-3-yl)aminocarbonyl]-4-(3,5-dimethylphenyl)piperazine [Example 34] |  |  |  |  |  | 2.3 ng/mL | 3.8 ng/mL | 0.3 ng/mL | 2.1 ng/mL | 2.1 ng/mL
COc1cc2ccccc2cc1NC(=O)N1CCN(c2cc(C)cc(C)c2)CC1 [Example 86, 1-[(2-Methoxynaphth-3-yl)aminocarbonyl]-4-(3,5-dimethylphenyl)piperazine] | 40 ng/mL (≈ 0.103 µM) | 80 ng/mL (≈ 0.205 µM) | 30 ng/mL (≈ 0.077 µM) | 40 ng/mL (≈ 0.103 µM) | 60 ng/mL (≈ 0.154 µM) |  |  |  |  | 
COc1cc(C)c(C)cc1N=C(NO)N1CCN(c2ccccc2)CC1 [Example 177, N-Hydroxy-N′-(4,5-dimethyl-2-methoxyphenyl-1-yl)-(4-phenylpiperazin-1-yl)carboxyimidamide] |  |  |  |  |  | 0.6 ng/mL (≈ 0.00169 µM) | 0.8 ng/mL (≈ 0.00226 µM) | 0.3 ng/mL (≈ 0.000846 µM) | 0.4 ng/mL (≈ 0.00113 µM) | 0.1 ng/mL (≈ 0.000282 µM)
COc1cc(OC)cc(N2CCN(C(=Nc3cc4ccccc4nc3OC)NO)CC2)c1 [Example 172, N-Hydroxy-N′-(2-methoxyquinolin-3-yl)-[4-(3,5-dimethoxyphenyl)-piperazin-1-yl]carboxyimidamide] |  |  |  |  |  | 70 ng/mL (≈ 0.16 µM) | 80 ng/mL (≈ 0.183 µM) | 20 ng/mL (≈ 0.0457 µM) | 30 ng/mL (≈ 0.0686 µM) | 20 ng/mL (≈ 0.0457 µM)
COc1nc2ccccc2nc1NC(=O)N1CCN(c2cccc(Br)c2)CC1 [Example 45, 1-[(2-Methoxyquinoxalin-3-yl)aminocarbonyl]-4-(3-bromop-henyl)piperazine] |  |  |  |  |  | 0.1 ng/mL (≈ 0.000226 µM) | 0.2 ng/mL (≈ 0.000452 µM) | <0.1 ng/mL | 0.2 ng/mL (≈ 0.000452 µM) | 0.1 ng/mL (≈ 0.000226 µM)
COc1cc(OC)cc(N2CCN(C(=Nc3cc(C(C)O)c(C)nc3OC)NO)CC2)c1 (stereo not drawn) [Example 139, N-Hydroxy-N′-[5-(1-hydroxyethyl)-2-methoxy-6-methylpyridin-3-yl]-[4-(3,5-dimethoxyphenyl)piperazin-1-yl]carboxyimidamide] |  |  |  |  |  | 0.7 ng/mL (≈ 0.00157 µM) | 0.7 ng/mL (≈ 0.00157 µM) | 0.2 ng/mL (≈ 0.000449 µM) | 0.3 ng/mL (≈ 0.000673 µM) | 0.4 ng/mL (≈ 0.000898 µM)
COc1cc(OC)cc(N2CCN(C(=Nc3cc(C)c(C)cc3OC)NO)CC2)c1 [Example 181, N-Hydroxy-N′-(4,5-dimethyl-2-methoxyphenyl-1-yl)-[4-(3,5-dimethoxyphenyl)piperazin-1-yl]carboxyimidamide] |  |  |  |  |  | 130 ng/mL (≈ 0.314 µM) | 60 ng/mL (≈ 0.145 µM) | 110 ng/mL (≈ 0.265 µM) | 40 ng/mL (≈ 0.0965 µM) | 20 ng/mL (≈ 0.0483 µM)
COc1cc2ccccc2cc1N(C)C(=O)N1CCN(c2cc(C)cc(C)c2)CC1 [Example 90, 1-[(2-Methoxynaphth-3-yl)-N-methylaminocarbonyl]-4-(3,5-dimethylphenyl)piperazine] | 380 ng/mL (≈ 0.942 µM) | 350 ng/mL (≈ 0.867 µM) | 900 ng/mL (≈ 2.23 µM) | 680 ng/mL (≈ 1.69 µM) | 200 ng/mL (≈ 0.496 µM) |  |  |  |  | 
CCc1ccccc1N1CCN(C(=O)Nc2nc(C)c(C)nc2OC)CC1 [Example 4, 1-[(5,6-Dimethyl-2-methoxypyrazin-3-yl)aminocarbonyl]-4-(2-ethylphenyl)piperazine] | 47 ng/mL (≈ 0.127 µM) | 251 ng/mL (≈ 0.679 µM) | 42 ng/mL (≈ 0.114 µM) | 89 ng/mL (≈ 0.241 µM) | 38 ng/mL (≈ 0.103 µM) |  |  |  |  | 
COc1nc2ccccc2cc1N=C(NO)N1CCN(c2cccc(Cl)c2)CC1 [Example 176, N-Hydroxy-N′-(2-methoxyquinolin-3-yl)-[4-(3-chlorophenyl)-piperazin-1-yl]carboxyimidamide] |  |  |  |  |  | 1.2 ng/mL (≈ 0.00291 µM) | 0.9 ng/mL (≈ 0.00219 µM) | 0.3 ng/mL (≈ 0.000728 µM) | 0.1 ng/mL (≈ 0.000243 µM) | 0.1 ng/mL (≈ 0.000243 µM)
COc1cc(C)c(C)cc1N=C(NO)N1CCN(c2cc(F)cc(F)c2)CC1 [Example 182, N-Hydroxy-N′-(4,5-dimethyl-2-methoxyphenyl-1-yl)-[4-(3,5-difluorophenyl)piperazin-1-yl]carboxyimidamide] |  |  |  |  |  | 292 ng/mL (≈ 0.748 µM) | 81 ng/mL (≈ 0.207 µM) | 33 ng/mL (≈ 0.0845 µM) | 103 ng/mL (≈ 0.264 µM) | 6 ng/mL (≈ 0.0154 µM)
COc1nc2ccccc2nc1NC(=O)N1CCN(c2ccccc2SC)CC1 [Example 51, 1-[(2-Methoxyquinoxalin-3-yl)aminocarbonyl]-4-(2-methylt-hiophenyl)piperazine] |  |  |  |  |  | 370 ng/mL (≈ 0.904 µM) | 680 ng/mL (≈ 1.66 µM) | 280 ng/mL (≈ 0.684 µM) | 630 ng/mL (≈ 1.54 µM) | 180 ng/mL (≈ 0.44 µM)
COc1nc(C)c(C(C)=O)cc1N=C(NO)N1CCN(c2cc(C)cc(C)c2)CC1 [Example 132, N-Hydroxy-N′-(5-acetyl-2-methoxy-6-methylpyridin-3-yl)-[4-(3,5-dimethylphenyl)piperazin-1-yl]carboxyimidamide] |  |  |  |  |  | 11 ng/mL (≈ 0.0267 µM) | 7 ng/mL (≈ 0.017 µM) | 1 ng/mL (≈ 0.00243 µM) | 2 ng/mL (≈ 0.00486 µM) | 1 ng/mL (≈ 0.00243 µM)
COc1nc(C)c(C)nc1NC(=O)N1CCN(c2ccccc2SC)CC1 [Example 14, 1-[(5,6-Dimethyl-2-methoxypyrazin-3-yl)aminocarbonyl]-4-(2-methylthiophenyl)piperazine] | 204 ng/mL (≈ 0.526 µM) | 677 ng/mL (≈ 1.75 µM) | 283 ng/mL (≈ 0.73 µM) | 340 ng/mL (≈ 0.877 µM) | 67 ng/mL (≈ 0.173 µM) |  |  |  |  | 
COc1cc(OC)cc(N2CCN(C(=Nc3cc(C)c(C)nc3OC)NO)CC2)c1 [Example 101, N-Hydroxy-N′-(5,6-dimethyl-2-methoxypyridin-3-yl)-[4-(3,5-dimethoxyphenyl)piperazin-1-yl]carboxyimidamide] |  |  |  |  |  | 0.3 ng/mL (≈ 0.000722 µM) | 0.3 ng/mL (≈ 0.000722 µM) | 0.3 ng/mL (≈ 0.000722 µM) | 0.2 ng/mL (≈ 0.000481 µM) | 0.1 ng/mL (≈ 0.000241 µM)
COc1nc(C)c(C(C)O)cc1N=C(NO)N1CCN(c2cc(C)cc(C)c2)CC1 (stereo not drawn) [Example 138, N-Hydroxy-N′-[5-(1-hydroxyethyl)-2-methoxy-6-methylpyridin-3-yl]-[4-(3,5-dimethylphenyl)piperazin-1-yl]carboxyimidamide] |  |  |  |  |  | 74 ng/mL (≈ 0.179 µM) | 30 ng/mL (≈ 0.0725 µM) | 16 ng/mL (≈ 0.0387 µM) | 18 ng/mL (≈ 0.0435 µM) | 6 ng/mL (≈ 0.0145 µM)
COc1cc(OC)cc(N2CCN(C(=Nc3cc(C(C)=O)c(C)nc3OC)NO)CC2)c1 [Example 133, N-Hydroxy-N′-(5-acetyl-2-methoxy-6-methylpyridin-3-yl)-[4-(3,5-dimethoxyphenyl)piperazin-1-yl]carboxyimidamide] |  |  |  |  |  | 0.1 ng/mL (≈ 0.000225 µM) | 0.1 ng/mL (≈ 0.000225 µM) | 0.1 ng/mL (≈ 0.000225 µM) | 0.1 ng/mL (≈ 0.000225 µM) | 0.1 ng/mL (≈ 0.000225 µM)
